Measured values published in PubChem BioAssay (NCI).
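Method: 48-hour compound exposure of cells in 96-well plates, five concentrations, linear interpolation of endpoints. TGI denotes the concentration required for complete inhibition of growth.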

Columns and labels:
Experiment in all cases: NCI-60 cell line screen, 48 h
786-0 renal = tested on: 786-0 renal
SR leukemia = tested on: SR leukemia
MDA-MB-435 = tested on: MDA-MB-435
DU-145 prostate = tested on: DU-145 prostate
SK-MEL-5 melanoma = tested on: SK-MEL-5 melanoma
OVCAR-5 ovarian = tested on: OVCAR-5 ovarian
NCI-H226 lung = tested on: NCI-H226 lung
UO-31 renal = tested on: UO-31 renal
HS 578T breast = tested on: HS 578T breast
A498 renal = tested on: A498 renal
U251 CNS = tested on: U251 CNS
SNB-75 CNS = tested on: SNB-75 CNS
HCT-116 colon = tested on: HCT-116 colon
UACC-62 melanoma = tested on: UACC-62 melanoma
A549 NSCLC = tested on: A549 NSCLC
SF-295 CNS = tested on: SF-295 CNS
RXF 393 renal = tested on: RXF 393 renal
T-47D breast = tested on: T-47D breast
HOP-92 NSCLC = tested on: HOP-92 NSCLC
M14 melanoma = tested on: M14 melanoma
HOP-62 NSCLC = tested on: HOP-62 NSCLC
CAKI-1 renal = tested on: CAKI-1 renal
COLO 205 colon = tested on: COLO 205 colon
NCI-H522 lung = tested on: NCI-H522 lung
NCI/ADR-RES ovarian = tested on: NCI/ADR-RES ovarian
SK-OV-3 ovarian = tested on: SK-OV-3 ovarian
UACC-257 melanoma = tested on: UACC-257 melanoma
PC-3 prostate = tested on: PC-3 prostate
SK-MEL-28 melanoma = tested on: SK-MEL-28 melanoma
BT-549 breast = tested on: BT-549 breast
OVCAR-8 ovarian = tested on: OVCAR-8 ovarian
HCT-15 colon = tested on: HCT-15 colon
TK-10 renal = tested on: TK-10 renal
NCI-H23 lung = tested on: NCI-H23 lung
EKVX NSCLC = tested on: EKVX NSCLC
IGROV1 ovarian = tested on: IGROV1 ovarian
SK-MEL-2 melanoma = tested on: SK-MEL-2 melanoma
LOX IMVI melanoma = tested on: LOX IMVI melanoma
MOLT-4 leukemia = tested on: MOLT-4 leukemia
OVCAR-4 ovarian = tested on: OVCAR-4 ovarian
SF-268 CNS = tested on: SF-268 CNS
MDA-MB-231 breast = tested on: MDA-MB-231 breast
MALME-3M melanoma = tested on: MALME-3M melanoma
KM12 colon = tested on: KM12 colon
OVCAR-3 ovarian = tested on: OVCAR-3 ovarian
SN12C renal = tested on: SN12C renal
K-562 leukemia = tested on: K-562 leukemia
RPMI-8226 leukemia = tested on: RPMI-8226 leukemia
HT29 colon = tested on: HT29 colon
CCRF-CEM leukemia = tested on: CCRF-CEM leukemia
SNB-19 CNS = tested on: SNB-19 CNS
MDA-N = tested on: MDA-N
SW-620 colon = tested on: SW-620 colon
SF-539 CNS = tested on: SF-539 CNS
MCF7 breast = tested on: MCF7 breast
HCC-2998 colon = tested on: HCC-2998 colon
ACHN renal = tested on: ACHN renal
NCI-H460 lung = tested on: NCI-H460 lung
HL-60(TB) leukemia = tested on: HL-60(TB) leukemia

CC(C)(C)OC(=O)N1CC(O)O[C@H](c2ccccc2)[C@@H]1c1ccccc1 (some centres not stated)
TGI (786-0 renal): 62.1 µM
TGI (SR leukemia): 62.8 µM
TGI (MDA-MB-435): 32.2 µM
TGI (DU-145 prostate): 53.8 µM
TGI (SK-MEL-5 melanoma): > 100 µM
TGI (OVCAR-5 ovarian): 32.3 µM
TGI (NCI-H226 lung): 45.7 µM
TGI (UO-31 renal): 31.4 µM
TGI (HS 578T breast): > 100 µM
TGI (A498 renal): 40.7 µM
TGI (U251 CNS): 33.4 µM
TGI (SNB-75 CNS): 70.2 µM
TGI (HCT-116 colon): > 100 µM
TGI (UACC-62 melanoma): 28.1 µM
TGI (A549 NSCLC): 39.5 µM
TGI (SF-295 CNS): 30.1 µM
TGI (RXF 393 renal): 30 µM
TGI (T-47D breast): > 100 µM
TGI (HOP-92 NSCLC): 36.1 µM
TGI (M14 melanoma): 30.2 µM
TGI (HOP-62 NSCLC): 31.2 µM
TGI (CAKI-1 renal): > 100 µM
TGI (COLO 205 colon): 97.4 µM
TGI (NCI-H522 lung): 45.6 µM
TGI (NCI/ADR-RES ovarian): > 100 µM
TGI (SK-OV-3 ovarian): 36.6 µM
TGI (UACC-257 melanoma): 35.3 µM
TGI (PC-3 prostate): 27.8 µM
TGI (SK-MEL-28 melanoma): 35.2 µM
TGI (BT-549 breast): 36.4 µM
TGI (OVCAR-8 ovarian): > 100 µM
TGI (HCT-15 colon): 33.9 µM
TGI (TK-10 renal): 33.1 µM
TGI (NCI-H23 lung): 29.5 µM
TGI (EKVX NSCLC): 40.9 µM
TGI (IGROV1 ovarian): 40.4 µM
TGI (SK-MEL-2 melanoma): 28.4 µM
TGI (LOX IMVI melanoma): > 100 µM
TGI (MOLT-4 leukemia): 97.5 µM
TGI (OVCAR-4 ovarian): 36.2 µM
TGI (SF-268 CNS): 77.6 µM
TGI (MDA-MB-231 breast): 67.6 µM
TGI (MALME-3M melanoma): 43.2 µM
TGI (KM12 colon): 42 µM
TGI (OVCAR-3 ovarian): 30.2 µM
TGI (SN12C renal): > 100 µM
TGI (K-562 leukemia): > 100 µM
TGI (RPMI-8226 leukemia): > 100 µM
TGI (HT29 colon): 39.3 µM
TGI (CCRF-CEM leukemia): 48.4 µM
TGI (SNB-19 CNS): 29.1 µM
TGI (MDA-N): 59.5 µM
TGI (SW-620 colon): 32.8 µM

COc1ccc(C2(O)C(S(=O)(=O)c3ccc(C)cc3)=Cc3ccc(OC)cc32)cc1 (configuration not stated)
TGI (786-0 renal): > 100 µM
TGI (SR leukemia): > 100 µM
TGI (MDA-MB-435): > 100 µM
TGI (DU-145 prostate): > 100 µM
TGI (SK-MEL-5 melanoma): > 100 µM
TGI (OVCAR-5 ovarian): > 100 µM
TGI (NCI-H226 lung): > 100 µM
TGI (SF-539 CNS): > 100 µM
TGI (HS 578T breast): > 100 µM
TGI (A498 renal): > 100 µM
TGI (U251 CNS): > 100 µM
TGI (SNB-75 CNS): 60.1 µM
TGI (HCT-116 colon): > 100 µM
TGI (A549 NSCLC): > 100 µM
TGI (SF-295 CNS): 97.4 µM
TGI (T-47D breast): > 100 µM
TGI (HOP-62 NSCLC): 77.2 µM
TGI (MCF7 breast): > 100 µM
TGI (COLO 205 colon): > 100 µM
TGI (NCI-H522 lung): > 100 µM
TGI (NCI/ADR-RES ovarian): > 100 µM
TGI (HCC-2998 colon): > 100 µM
TGI (SK-OV-3 ovarian): > 100 µM
TGI (UACC-257 melanoma): > 100 µM
TGI (PC-3 prostate): > 100 µM
TGI (SK-MEL-28 melanoma): > 100 µM
TGI (OVCAR-8 ovarian): > 100 µM
TGI (HCT-15 colon): > 100 µM
TGI (TK-10 renal): > 100 µM
TGI (NCI-H23 lung): > 100 µM
TGI (EKVX NSCLC): > 100 µM
TGI (IGROV1 ovarian): > 100 µM
TGI (SK-MEL-2 melanoma): > 100 µM
TGI (LOX IMVI melanoma): > 100 µM
TGI (MOLT-4 leukemia): > 100 µM
TGI (ACHN renal): > 100 µM
TGI (SF-268 CNS): > 100 µM
TGI (MDA-MB-231 breast): > 100 µM
TGI (KM12 colon): > 100 µM
TGI (NCI-H460 lung): > 100 µM
TGI (SN12C renal): > 100 µM
TGI (K-562 leukemia): > 100 µM
TGI (RPMI-8226 leukemia): > 100 µM
TGI (HT29 colon): > 100 µM
TGI (CCRF-CEM leukemia): > 100 µM
TGI (HL-60(TB) leukemia): > 100 µM
TGI (SNB-19 CNS): > 100 µM
TGI (MDA-N): > 100 µM
TGI (SW-620 colon): > 100 µM

c1cc2ccc3cc4ncccc4c4ccc(c1)c2c34
TGI (786-0 renal): > 100 µM
TGI (SR leukemia): > 100 µM
TGI (MDA-MB-435): > 100 µM
TGI (DU-145 prostate): > 100 µM
TGI (OVCAR-5 ovarian): > 100 µM
TGI (NCI-H226 lung): > 100 µM
TGI (UO-31 renal): 40.2 µM
TGI (SF-539 CNS): > 100 µM
TGI (HS 578T breast): > 100 µM
TGI (U251 CNS): > 100 µM
TGI (SNB-75 CNS): > 100 µM
TGI (HCT-116 colon): > 100 µM
TGI (UACC-62 melanoma): > 100 µM
TGI (A549 NSCLC): > 100 µM
TGI (SF-295 CNS): > 100 µM
TGI (RXF 393 renal): > 100 µM
TGI (T-47D breast): > 100 µM
TGI (HOP-92 NSCLC): > 100 µM
TGI (M14 melanoma): > 100 µM
TGI (HOP-62 NSCLC): > 100 µM
TGI (CAKI-1 renal): > 100 µM
TGI (MCF7 breast): > 100 µM
TGI (COLO 205 colon): > 100 µM
TGI (NCI-H522 lung): > 100 µM
TGI (NCI/ADR-RES ovarian): > 100 µM
TGI (HCC-2998 colon): > 100 µM
TGI (SK-OV-3 ovarian): > 100 µM
TGI (UACC-257 melanoma): > 100 µM
TGI (PC-3 prostate): > 100 µM
TGI (SK-MEL-28 melanoma): > 100 µM
TGI (OVCAR-8 ovarian): 67.4 µM
TGI (HCT-15 colon): > 100 µM
TGI (TK-10 renal): > 100 µM
TGI (NCI-H23 lung): > 100 µM
TGI (EKVX NSCLC): > 100 µM
TGI (IGROV1 ovarian): 25 µM
TGI (SK-MEL-2 melanoma): 77 µM
TGI (LOX IMVI melanoma): > 100 µM
TGI (MOLT-4 leukemia): > 100 µM
TGI (ACHN renal): 31.6 µM
TGI (SF-268 CNS): > 100 µM
TGI (MDA-MB-231 breast): > 100 µM
TGI (MALME-3M melanoma): > 100 µM
TGI (KM12 colon): > 100 µM
TGI (NCI-H460 lung): > 100 µM
TGI (OVCAR-3 ovarian): > 100 µM
TGI (SN12C renal): > 100 µM
TGI (K-562 leukemia): > 100 µM
TGI (RPMI-8226 leukemia): 88.3 µM
TGI (HT29 colon): > 100 µM
TGI (CCRF-CEM leukemia): > 100 µM
TGI (HL-60(TB) leukemia): > 100 µM
TGI (SNB-19 CNS): > 100 µM
TGI (MDA-N): > 100 µM
TGI (SW-620 colon): > 100 µM
